The text below walks through data of US9783853B2, “Recurrent gene fusions in cancer” (THE REGENTS OF THE UNIVERSITY OF MICHIGAN, priority 2013, dated 2017).

For one assay, the system named is SW780 xenografts. Description: Mouse xenograft model, tumor growth. The format is in vivo, C.B17/SCID mice. The settings on record: increasing doses, intraperitoneal. The procedure: (§1) Five week-old male C.B17/SCID mice were procured from a breeding colony at University of Michigan, maintained by Dr. Kenneth Pienta. Mice were anesthetized using a cocktail of xylazine ([…], intraperitoneal) and ketamine (10 mg/kg, intraperitoneal) for chemical restraint. Bladder cancer cells SW780 (2 million cells for each implantation site) or J82 (5 million cells for each implantation site) were resuspended in 100 μl of 1×PBS with 20% Matrigel (BD Biosciences) and were implanted subcutaneously into flank region on both sides. Eight mice were included in each experimental group. All tumors were staged for two weeks (SW780 cells) and three weeks (J82 cells) before starting the drug treatment. Xenografted mice with palpable tumors were treated with a FGFR inhibitor PD173074 (Selleck Chemicals) dissolved in 5% ethanol in corn oil (intraperitoneal). Mice in control group received 5% ethanol in corn oil as vehicle control. Tumor growth was recorded weekly by using digital calipers and tumor volumes were calculated using the formula (π/6) (L×W2), where L=length of tumor and W=width. Any decrease in the body weight of mice was monitored bi-weekly during the course of the study. All experimental procedures involving mice were approved by the University Committee on Use and Care of Animals (UCUCA) at the University of Michigan and conform to their relevant regulatory standards.

Another assay has as its system J82 xenografts. Description: Mouse xenograft model, tumor growth. The format is in vivo, C.B17/SCID mice. The settings on record: increasing doses, intraperitoneal. The procedure: as §1
Assay [1] relates to SW780 cells (FGFR3-BAIAP2L1 fusion). The experiment in a line: Cell proliferation assay (WST-1), FGFR inhibition. The assay is classed as cell-based. As to conditions: 0, 5, 25, 100 nM. As for the experimental part: For validation of fusion transcripts, quantitative RT-PCR assays were performed. Total cDNAs of index cases and negative control samples were synthesized using SuperScript III System according to the manufacturer's instructions (Invitrogen). Quantitative RT-PCR was performed using fusion-specific primers (Table 15) with SYBR Green Master Mix (Applied Biosystems) on the StepOne Real-Time PCR System (Applied Biosystems). The PCR products were further analyzed by agarose gel electrophoresis. Relative mRNA levels of the fusion transcripts were normalized to the expression of the housekeeping gene GAPDH. Inhibition of FGFR receptors and cell proliferation assay Bladder cancer cells SW780, J82, and HT1197 were seeded into 96-well plates in triplicate and allowed to attach before drug treatment. The FGFR inhibitor PD173074 (Selleck Chemicals) was added to the cultures at concentrations of 0, 5, 25, and 100 nM. Relative cell numbers were measured by WST-1 assays at indicated time points following the manufacturer's instructions (Roche).
For orientation: Formazan colour is commonly taken as a measure of viable cells.

For the compound `CCN(CC)CCCCNc1ncc2cc(-c3cc(OC)cc(OC)c3)c(NC(=O)NC(C)(C)C)nc2n1` [PD173074], the xenograft tumor growth entry was “decreased tumor growth” with SW780 xenografts and “did not” with J82 xenografts. The “sensitivity of cell line to FGFR inhibitor (cell proliferation)” value is listed as “sensitive to nanomolar concentrations” in assay [1] and “enhanced sensitivity” in assay [1] (listed as PD 173074).
